Target: Glycogen synthase kinase-3 beta (Homo sapiens, UniProt P49841)
Assay: GSK3beta kinase inhibitor potency, dose response, biochemical, luminescence, cell-free homogeneous, retest (AID 434954)

Chain of Glycogen synthase kinase-3 beta (P49841 whole entry): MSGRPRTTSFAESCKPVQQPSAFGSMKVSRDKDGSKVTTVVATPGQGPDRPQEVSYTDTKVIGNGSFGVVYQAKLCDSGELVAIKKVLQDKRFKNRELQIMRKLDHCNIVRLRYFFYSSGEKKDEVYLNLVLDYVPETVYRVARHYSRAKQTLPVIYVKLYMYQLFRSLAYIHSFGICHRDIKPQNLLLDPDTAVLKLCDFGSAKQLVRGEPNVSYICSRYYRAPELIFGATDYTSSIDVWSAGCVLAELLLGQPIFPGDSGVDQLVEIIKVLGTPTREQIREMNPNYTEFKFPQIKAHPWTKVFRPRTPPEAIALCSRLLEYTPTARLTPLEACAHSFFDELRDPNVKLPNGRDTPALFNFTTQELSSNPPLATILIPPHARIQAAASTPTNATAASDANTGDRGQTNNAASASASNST

EC50 [µM]	Structure (SMILES)
> 300	CC(=O)Nc1cccc(Nc2nc(-c3ccccc3)nc3ccccc23)c1 [SMR000384461]
30.7	c1cncc(-c2nc(NCCCn3ccnc3)c3ccccc3n2)c1 [SMR000384722]
> 300	Cc1ccc2c(c1)C1CN(C)CCC1N2C(=S)Nc1ccc(Cl)cc1Cl (stereo unspecified) [SMR000385491]
> 300	O=C(C1=C[C@@H](c2ccc(C(F)(F)F)cc2)C[C@@H](OCCCCO)O1)N1CCN(Cc2ccccc2)CC1 [SMR000389639]
> 300	N#Cc1c(N)n(-c2cccc(O)c2)c2nc3ccccc3nc12 [SMR000413688]
32.4	CCN1C(=O)/C(=N\NC(=O)C(O)c2ccccc2)c2ccccc21 (stereo unspecified) [SMR000414657]
> 300	COc1cc(C=C2SC(Nc3ccc(O)cc3)=NC2=O)cc(OC)c1OC [SMR000414809]
> 300	O=C1/C(=C/C=C/c2ccccc2)Oc2c1ccc(O)c2CN1CCN(CCO)CC1 [SMR000415785]
> 300	O=C(O)c1ccc(N=NCc2ccc(-c3cccc(Cl)c3)o2)cc1 [SMR000415894]
44.5	Cc1ccc(-n2c(=O)c3c4c(sc3n3c(S)nnc23)CCC4)cc1 [SMR000419881]
> 300	Nc1nnc(CC(=O)NN=Cc2ccccc2OCc2ccc(F)cc2)s1 [SMR000420435]
4.3	O=C(Cc1ccc(Br)cc1)Nc1ncc([N+](=O)[O-])s1 [SMR000429978]
> 300	COc1ccc2nc(Cl)cc(Cl)c2c1 [SMR000430028]
> 300	Cc1ccc(C(=O)NN=Cc2ccc(-c3ccc(Cl)c(Cl)c3)o2)cn1 [SMR000431370]
> 300	Cc1ccc(C(=O)N/N=C/c2ccc(-c3ccc([N+](=O)[O-])cc3)o2)cn1 [SMR000431371]
11.7	CNc1nc(N)c([N+](=O)[O-])c(Nc2cccc(Cl)c2)n1 [SMR000434546]
> 300	Nc1nc(NCC2CCCO2)nc(Nc2cccc(Cl)c2)c1[N+](=O)[O-] (stereo unspecified) [SMR000434547]
26.3	Nc1nc(NCCN2CCOCC2)nc(NCc2ccccc2)c1[N+](=O)[O-] [SMR000434816]

EC50 [µM]	Structure (SMILES)
0.632	CCC(C)Nc1nc(N)c([N+](=O)[O-])c(Nc2ccccc2OC)n1 (stereo unspecified) [SMR000434817]
13.8	COc1ccc(Nc2nc(N)c([N+](=O)[O-])c(N3CCOCC3)n2)cc1 [SMR000434818]
> 300	Nc1nc(NCc2ccco2)nc(Nc2cccc(F)c2)c1[N+](=O)[O-] [SMR000436034]
12.4	CNc1nc(N)c([N+](=O)[O-])c(Nc2cccc(F)c2)n1 [SMR000436035]
87.5	Nc1nc(NCCCN2CCOCC2)nc(Nc2cccc(F)c2)c1[N+](=O)[O-] [SMR000436037]
> 300	COc1ccccc1Nc1nc(NCc2ccco2)nc(N)c1[N+](=O)[O-] [SMR000436038]
14.6	Cc1ccc(Nc2nc(N)c([N+](=O)[O-])c(NCCO)n2)cc1C [SMR000436043]
> 300	CN(C)c1nc(N)c([N+](=O)[O-])c(NCC2CCCO2)n1 (stereo unspecified) [SMR000436172]
49.7	CNc1nc(N)c([N+](=O)[O-])c(NCC2CCCO2)n1 (stereo unspecified) [SMR000436173]
0.888	COc1ccccc1Nc1nc(NCC(C)C)nc(N)c1[N+](=O)[O-] [SMR000436174]
> 300	CCOCCCn1c(=NC(C)=O)c(C#N)cc2c(=O)n3cccc(C)c3nc21 [SMR000436200]
> 300	CCCn1nc(NC(=O)c2cccs2)c2cc3cc(C)ccc3nc21 [SMR000436650]
> 300	CCN(CC)CCCNc1nc(N)c([N+](=O)[O-])c(NCCO)n1 [SMR000436737]
13.6	Nc1nc(NCc2ccc(Cl)cc2)nc(NCCO)c1[N+](=O)[O-] [SMR000436738]
> 300	CCN1CCN(c2nc(Nc3cc(OC)ccc3OC)nc(Nc3cc(OC)ccc3OC)n2)CC1 [SMR000439674]
> 300	CCCC1=Nc2ncnn2C(c2sccc2C)C1C(=O)OCC (stereo unspecified) [SMR000440057]
74.4	Cc1ccc(S(=O)(=O)CCSc2n[nH]c(=O)n2-c2ccc3c(c2)OCCO3)cc1 [SMR000456166]

Structure (SMILES)	EC50 [µM]
CC[n+]1c(/C=C/C=C/c2ccc(N(C)C)cc2)sc2ccccc21 [SMR000420206]	35.1

— BindingDB's records for doi:10.7270/Q2TX3CTT (Broad Institute, 2010)
